Like-named read-outs stand apart in the source and are kept apart here. Marks after values point to notes of the source that are not given here.
How the values were obtained:
[1] = test system: Human Keratinocytes (HaCaT); assay: In vitro combination methotrexate and IS181 (MTT); conditions: for 50% Inhibition (concentration of MTX): 72 h
Procedure: (§1) The cells were then incubated for 72 hours. Percentage cytotoxicity was determined using MTT assay.

in vitro = conditions: human, HaCaT keratinocytes
Procedure: as §1

VEGF = VEGF inhibition in keratinocytes (ELISA); assay type: cell-based, Human; conditions: HaCaT, 24 h
Procedure: Cell lines: Human Keratinocytes (HaCaT); test item: IS181; treatment regimen: single addition—24 hours; concentration range: 0.1 μg/ml-100 μg/ml. […] Cells were serum-starved for another 24 hours (0% FBS). Cells were treated with IS181 for 24 hours. Supernatants were collected and stored at −20° C. till analysed. Levels of VEGF were analysed in supernatants by ELISA. Percent inhibition of VEGF secretion was calculated with reference to untreated levels. Positive control: curcumin; retinoic acid (at non-cytotoxic concentrations).

Row | SMILES | 50% Inhibition (concentration of MTX) ([1]; with IS181 10 μg/ml) | 50% Inhibition (concentration of MTX) ([1]; with IS181 50 μg/ml) | IC50 ([1]; read-out: 50% Inhibition (concentration of MTX), 72 h, MTX Alone) | IC50 ([1]; read-out: 50% Inhibition (concentration of MTX), 72 h, with IS181 10 μg/ml) | IC50 ([1]; read-out: 50% Inhibition (concentration of MTX), 72 h, with IS181 50 μg/ml) | IC50 ([1]; read-out: 50% Inhibition (concentration of MTX), 72 h, with IS181 500 μg/ml) | IC50 ([1]; read-out: 50% Inhibition (concentration of MTX), 72 h, with IS181 1000 μg/ml) | IC50 ([1]; read-out: 50% Inhibition (concentration of MTX), 72 h, with IS181 2000 μg/ml) | IC50 ([1]; read-out: 50% Inhibition (concentration of MTX), 72 h, with IS181 5000 μg/ml) | cytotoxicity at 72 h, 0.01 µM (in vitro) | cytotoxicity at 72 h, 0.1 µM (in vitro) | cytotoxicity at 72 h, 0.25 µM (in vitro) | cytotoxicity at 72 h, 0.5 µM (in vitro) | cytotoxicity at 72 h, 1 µM (in vitro) | cytotoxicity at 72 h, 5 µM (in vitro) | Conc. of VEGF (pg/ml) (VEGF; RA 1 μM) | Conc. of VEGF (VEGF; RA 10 μM) | inhibition at 1 µM (VEGF; Homo sapiens, RA 1 μM, read-out: % Inhibition of VEGF wrt untreated (basal) levels) | inhibition at 10 µM (VEGF; Homo sapiens, RA 10 μM, read-out: % Inhibition of VEGF wrt untreated (basal) levels)
1 | CN(Cc1cnc2nc(N)nc(N)c2n1)c1ccc(C(=O)N[C@@H](CCC(=O)O)C(=O)O)cc1 [MTX, methotrexate] | 50% inhibition was still not achieved | 50% inhibition was still not achieved | > 5000 nM | > 5000 nM | > 5000 nM | 1000 to 5000 nM | 10 nM | < 10 nM | < 10 nM | 12.3% | 1.9% | 21.3% | 23.9% | 27.7% | 22% | – | – | – | –
2 | CC1=C(/C=C/C(C)=C/C=C/C(C)=C/C(=O)O)C(C)(C)CCC1 [RA, retinoic acid, reference compound] | – | – | – | – | – | – | – | – | – | – | – | – | – | – | – | 2775.1* pg/ml | 2982.4 pg/mL | 22.8% | 17%

— patent US10538561B2, “Peptide for treating inflammatory diseases” (priority 2015, dated 2020)
